This assay deals with T1, Human recombinant HDAC2 enzyme (Homo sapiens, UniProt Q92769).
T1 construct: purchased Abcam
Briefly: HDAC2 fluorescence enzyme inhibition assay (Boc-Lys(acetyl)-AMC). Format: biochemical. The procedure:
Firstly, a 96-well plate was loaded with a blend comprising 10 μL of HDAC2 enzyme solution and 50 μL of the test compounds at assorted concentrations, followed by incubation at a temperature of 37°C for a duration of 5 min. Subsequently, 10 μL of the fluorescent substrate Boc-Lys (acetyl)-AMC was added and continued for 30 min. Finally, 100 μL of developer containing trypsin and TSA was injected into each well and incubated for 20 min.

The values below come from PMC11604427 (Frontiers in Pharmacology, 2024).

Each structure is given as a SMILES string.

As usually defined, the IC50 is the concentration needed to halve the response being measured.

T1 sequence (Q92769 whole entry): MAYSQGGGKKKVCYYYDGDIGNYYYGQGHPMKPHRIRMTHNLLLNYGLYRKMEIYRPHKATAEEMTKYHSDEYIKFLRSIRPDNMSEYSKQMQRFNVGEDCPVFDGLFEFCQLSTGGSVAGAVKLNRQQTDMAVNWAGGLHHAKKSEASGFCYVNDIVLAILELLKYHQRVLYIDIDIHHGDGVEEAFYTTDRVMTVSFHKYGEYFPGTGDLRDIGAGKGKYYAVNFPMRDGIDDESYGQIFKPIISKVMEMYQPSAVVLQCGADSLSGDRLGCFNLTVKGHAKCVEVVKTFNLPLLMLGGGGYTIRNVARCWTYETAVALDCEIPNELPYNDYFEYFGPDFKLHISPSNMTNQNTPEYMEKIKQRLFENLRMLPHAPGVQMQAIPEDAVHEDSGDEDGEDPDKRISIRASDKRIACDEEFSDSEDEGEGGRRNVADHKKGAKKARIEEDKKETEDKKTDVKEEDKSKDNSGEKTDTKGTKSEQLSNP

For `Cc1ccc(O)c(C)c1-n1c(N)c(C(N)=O)c2cc(CCCCCC(=O)NO)c(C)nc21` [PKHD-5], the 50% inhibitory concentration (IC50) (fluorescence signal-based method) amounted to 2.28 ± 0.13 nM. Also, the “fold inhibition of HDAC2 compared with SAHA” value (ratio of IC50 values versus SAHA) worked out at 4.42 fold.
